Experimental data from patent publication US5968791A, “Plant lysophosphatidic acid acyltransferases” (Calgene, Inc., priority 1995, dated 1999).

Key:
[1] = test system: Rapeseed LPAAT; test: LPAAT activity assay, rapeseed P2 membrane preparation; type: biochemical, Brassica napus; conditions: acyl-CoA donor varied, acceptor 12:0-LPA
Method: (§1) To assay for LPAAT activity, the sample is incubated with lysophosphatidic acid (LPA) and acyl-coenzyme A (acyl-CoA) substrates in buffered solution. The acyl substituents of the two substrates are chosen to correspond with the specificity of the enzyme being measured. For example, to measure activity of an LPAAT having preference for medium-chain substrates, lauroyl-LPA (lauroyl-lysophosphatidic acid) and lauroyl-CoA may be used, to measure activity of an LPAAT preferring longer-chain acyl groups, oleoyl-LPA and oleoyl-CoA may be used, to measure activity of an LPAAT preferring very-long chain substrate, erucyl-LPA and erucyl-CoA may be used, and so on, depending upon the type of LPAAT to be tested. The acyl group of one substrate is radioactively labeled in order to detect the product formed. In the examples which follow the acyl substituent of the acyl-CoA substrate is radiolabeled with ^14 C in the carboxyl group. LPAAT activity results in transfer of this acyl group from the acyl-CoA "donor" substrate to the LPA "acceptor" substrate, converting the latter into the product, phosphatidic acid (PA). LPAAT activity is measured as the amount of radioactive product formed in a given assay time. The PA product is radioactive as a result of the transferred radiolabeled acyl group at the central carbon atom of the molecule, and the quantity of PA formed may be determined by measuring radioactivity of the PA fraction. For this measurement, the PA is first separated from the acyl-CoA substrate by solvent partitioning, or by thin-layer chromatography (TLC).
(§2) 20 μl of the sample to be assayed for LPAAT activity is mixed with 217.5 μl of an assay ingredient mixture in a 4-ml, screw-cap vial. […] The incubation takes place in a water bath at 30° C., for 20-30 minutes.
(§3) To stop the assay, 0.25 ml of 1M KCl in 0.2M H3 PO4 is added to the vial. At this point, 40 μl BSA (bovine serum albumin, fraction V) at 1 mg/ml are added, followed by 0.75 ml of a solution of 67 μg/ml unlabeled PA (acting as a "carrier" to facilitate partitioning) in chloroform/methanol (2:1, v/v). The chain lengths of the PA acyl groups are chosen to correspond to those used in the assay substrates. Upon thorough mixing of these components the radiolabeled PA product of the LPAAT reaction partitions into the organic phase and away from the unreacted acyl-CoA and LPA. The vial is centrifuged briefly at low speed to facilitate the separation of organic (lower) and aqueous (upper) phases. The aqueous phase is then removed and discarded. The total radioactivity extracted into the organic phase is determined by liquid scintillation counting; a 100 μl sample of the organic phase is transferred to a 20 ml scintillation vial and allowed to dry, and scintillation fluid (3-5 ml) is added to the vial. The radioactivity of the sample, after subtraction of the "minus-enzyme" or "minus-LPA" radioactivities, is taken as an approximate indication of the amount of PA formed in the LPAAT-catalyzed reaction and therefore of LPAAT activity.
A more accurate estimation of the LPAAT activity may be obtained by separating the PA product from these contaminants by TLC. The remaining organic phase is applied to a silica TLC plate. […] After the plate has dried, the distribution of radioactivity is visualized and quantitated using an AMBIS radioanalytic imaging system (AMBIS Systems Inc., San Diego, Calif.). From prior application of standard lipid components the Rf of the PA is known. The radioactivity associated with the PA spot is expressed as a percentage of the total radioactivity of the assay sample loaded on the plate. This ratio provides an indication of the proportion of the scintillation counts which represent the PA product, and may be used to correct the counts to obtain the total PA radioactivity formed in the assay.
A P2 membrane homogenate from immature embryos of developing rapeseed (Brassica napus) seeds is prepared essentially as described above, except as noted below.

[2] = target: T1, LPAAT of transformant 5511-5 (Cocos nucifera, UniProt Q42670); test: LPAAT acyl-CoA specificity, P2 preparation of LPAAT-transformed line 5511-5; type: biochemical, Rapeseed; conditions: acyl-CoA donor varied at 5 μM, acceptor 12:0-LPA; 30 minute reaction
T1 construct: crude P2 membranes, host LPAAT also present
T1 sequence (Q42670 1-308): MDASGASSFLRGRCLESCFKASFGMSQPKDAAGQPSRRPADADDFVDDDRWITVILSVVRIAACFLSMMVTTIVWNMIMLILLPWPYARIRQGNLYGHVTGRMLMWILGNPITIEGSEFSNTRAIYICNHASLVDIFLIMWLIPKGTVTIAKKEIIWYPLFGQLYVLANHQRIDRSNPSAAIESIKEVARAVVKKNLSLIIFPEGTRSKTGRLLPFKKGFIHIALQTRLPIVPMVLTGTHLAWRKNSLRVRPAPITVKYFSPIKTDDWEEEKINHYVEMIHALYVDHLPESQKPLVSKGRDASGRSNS
Method: Detailed acyl-CoA chain-length specificity analysis of control P2 preparations and LPAAT-transformed line 5511-5 were determined as described above, using the original 30 minute reaction time. The acyl-CoA substrates for this analysis are present in methanol, and thus the assay also had the following modifications. The first solution placed in the assay vial was the volume of each radiolabeled acyl-CoA required for 5 μM final assay concentration. […] After mixing to redissolve the acyl-CoA off the vial wall, the reaction is started by addition of 25 μl of a 5-fold diluted P2 preparation and continued as before. Acyl-CoA substrates used in this analysis were 8:0, 10:0, 12:0, 14:0, 16:0, 18:0, and 18:1. The acceptor substrate in these assays was 12:0-LPA.

[3] = target: T2, coconut LPAAT (Cocos nucifera, UniProt Q42670); test: LPAAT activity assay, coconut P2 membrane preparation; type: biochemical; set-up: white endosperm tissue lining the inside of the endocarp can be dissected and collected; from tissue; host or cells: immature coconut endosperm, P2 membrane fraction; conditions: P2 membrane preparation; acyl-CoA donor varied, acceptor 12:0-LPA
T2 sequence (Q42670 1-308): T1 sequence (Q42670 1-308)
Method: as §1, §2, §3
A more accurate estimation of the LPAAT activity may be obtained by separating the PA product from these contaminants by TLC. The remaining organic phase is applied to a silica TLC plate. Ascending chromatography is carried out for 50 minutes, using the solvent mixture chloroform/pyridine/88% formic acid (50:30:7, v/v). After the plate has dried, the distribution of radioactivity is visualized and quantitated using an AMBIS radioanalytic imaging system (AMBIS Systems Inc., San Diego, Calif.). From prior application of standard lipid components the Rf of the PA is known. The radioactivity associated with the PA spot is expressed as a percentage of the total radioactivity of the assay sample loaded on the plate. This ratio provides an indication of the proportion of the scintillation counts which represent the PA product, and may be used to correct the counts to obtain the total PA radioactivity formed in the assay. […]

Row | Structure (SMILES) | LPAAT Activity from Rapeseed [1] | Cpm PA Product, 5511-5 [2] | LPAAT Activity from Coconut [3]
1 | CCCCCCCC(=O)SCCNC(=O)CCNC(=O)[C@H](O)C(C)(C)COP(=O)(O)OP(=O)(O)OC[C@H]1O[C@@H](n2cnc3c(N)ncnc32)[C@H](O)[C@@H]1OP(=O)(O)O [8:0] | 2 pmol PA formed/30 min assay | 454 Cpm | 6 pmol PA formed/30 min assay
2 | CCCCCCCCCC(=O)SCCNC(=O)CCNC(=O)[C@H](O)C(C)(C)COP(=O)(O)OP(=O)(O)OC[C@H]1O[C@@H](n2cnc3c(N)ncnc32)[C@H](O)[C@@H]1OP(=O)(O)O [10:0] | 12 pmol PA formed/30 min assay | 5648 Cpm | 43 pmol PA formed/30 min assay
3 | CCCCCCCCCCCC(=O)SCCNC(=O)CCNC(=O)[C@H](O)C(C)(C)COP(=O)(O)OP(=O)(O)OC[C@H]1O[C@@H](n2cnc3c(N)ncnc32)[C@H](O)[C@@H]1OP(=O)(O)O [12:0, lauroyl-CoA] | 79 pmol PA formed/30 min assay | 9337 Cpm | 238 pmol PA formed/30 min assay
4 | CCCCCCCCCCCCCC(=O)SCCNC(=O)CCNC(=O)[C@H](O)C(C)(C)COP(=O)(O)OP(=O)(O)OC[C@H]1O[C@@H](n2cnc3c(N)ncnc32)[C@H](O)[C@@H]1OP(=O)(O)O [14:0] | 16 pmol PA formed/30 min assay | 5080 Cpm | 61 pmol PA formed/30 min assay
5 | CCCCCCCCCCCCCCCC(=O)SCCNC(=O)CCNC(=O)[C@H](O)C(C)(C)COP(=O)(O)OP(=O)(O)OC[C@H]1O[C@@H](n2cnc3c(N)ncnc32)[C@H](O)[C@@H]1OP(=O)(O)O [16:0] | 27 pmol PA formed/30 min assay | 4569 Cpm | 21 pmol PA formed/30 min assay
6 | CCCCCCCC/C=C\CCCCCCCC(=O)SCCNC(=O)CCNC(=O)[C@H](O)C(C)(C)COP(=O)(O)OP(=O)(O)OC[C@H]1O[C@@H](n2cnc3c(N)ncnc32)[C@H](O)[C@@H]1OP(=O)(O)O [18:1, oleoyl-CoA] | 218 pmol PA formed/30 min assay | 8430 Cpm | 9 pmol PA formed/30 min assay
